# Non-standard residues stand in square brackets, D forms with d. Residues, ends and D or L forms follow the SMILES beside them. Phe(ol) = N[C@H](CO)Cc1ccccc1; Aib = CC(C)(N)C(=O)O
# What was measured:
# [1] = test system: purified mouse liver mitochondria; assay: Real-time flow cytometry (FCM) analysis of mitochondrial morphology (FSC/SSC) on isolated mitochondria; assay type: biochemical; conditions: for changes of mitochondrial size (FSC) and structure (SSC) (in words): isolated mitochondria, 1-30 μM Ca2+, 20 μM CCCP, alamethicin 5 μg/ml; for induction of MMP / activity on isolated mitochondria (in words): real time test on isolated mitochondria
# Experimental: (§1) Liver mitochondria were isolated from 3-4 weeks old Balb-c mice (IFFA CREDO, Saint Germain sur l'Arbresle, France). Animals were fasted overnight before being killed by […] dislocation. Liver mitochondria were prepared as described (Jacotot, 2000). All steps were carried out at 4° C. Finally, the organelles were resuspended in ‘swelling buffer’, composed by 200 mM sucrose, 5 mM succinate, 10 mM Tris-MOPS (pH 7.4), 1 mM H3PO4, 2 μM Rotenone, and 10 μM EGTA at pH=7.4. Spectrophotometric and flow cytometric analyses were performed in this buffer. The protein content of isolated mitochondria was determined by the Bradford assay.
# Fluorescence-activated flow cytometry was performed using a 3-color FACSCalibur cytometer equipped with a 15 mW air-cooled 488 nm argon laser (Becton Dickinson, San Jose, Calif.). Mitochondria analyses were performed after appropriate settings of the Forward angle light scatter (FSC)—Side angle light scatter (SSC) detectors (see FIG. 1). Discrimination between mitochondria and cellular debris and noise background was performed by an appropriate gating on FSC-SSC scatter plots (FIG. 1) (Radcliff G, Jaroszeski M J 1998 Methods Mol Biol 91:1-24 Basics of flow cytometry). Systematic confirmation of the validity of this gating was obtained by a labeling of mitochondria with the ΔΨm-insensitive mitochondrial dye MitoTracker® Green (MTG, Molecular Probes, Eugene, Oreg.) (Jacotot et al., 2001). Briefly mitochondria (1.5 μg proteins) were respuspended in 400 μl swelling buffer containing 200 nM MTG for 15 min at room temperature. The organelles were immediately analyzed on the cytometer with the CellQuest Pro software (Becton Dickinson). MTG fluorescence was collected in the FL-1 channel (530+/−15 nm) and analyzed in logarithmic amplifier mode, using the PMT at a voltage adjusted to 907. Data from 20,000 gated mitochondria were recorded and analyzed.
# Mitochondrial size was analyzed through the light scattered by the organelles at low angle using the Forward scatter (FSC) photodiode. Signals were collected using the E-00 setting, with a logarithmic amplification gain of 5.41. Mitochondrial structure was evaluated by the light scattered in the perpendicular direction. It was assessed by the sensitive Side scatter (SSC) photomultiplier tube (PMT), using a voltage of 581, and a linear amplification gain adjusted to 4.27. The morphological changes related to swelling of purified mitochondria were monitored by the increase in mitochondrial size (FSC) and the decrease in the organelle structure (SSC) using the CellQuest Pro software. The FSC/SSC ratio was calculated by the FCS Assistant software and permitted to integrate both variations in size and structure into only one parameter.
# Real-time experiments were performed on mitochondrial samples containing 1.5 μg proteins in 800 μl (=2 ng/µl) of swelling buffer. Samples were acquired on the flow cytometer for 5 minutes to record basal morphological criteria. Then reagents were added to samples, and variations in light scattering were recorded for the following 15 minutes. The sample flow rate was settled to 12 μl+/−3 μl/min for both fixed- and real-time analyses.
# Swelling curves were obtained after plotting FSC or SSC parameters versus time, and division of the time scale into discrete periods of 1 minute. The mean FSC and SSC of mitochondria from every period were calculated by the CellQuest Pro software, and were exported into the Microsoft Excel software.
# [2] = test system: purified mouse liver mitochondria; assay: Real-time FCM analysis of mitochondrial transmembrane potential (ΔΨm) with JC-1; assay type: biochemical; conditions: JC-1 loaded mitochondria; 20 μM mClCCP, 30 μM Ca2+ or 5 μM Alamethicin
# Experimental: as §1
# Mitochondrial transmembrane potential (ΔΨm) was assessed by 5,5′,6,6′,-tetracholoro-1,1,3,3′-tetraethylbenzimidazolyl carbocyanine iodide (JC-1, Molecular Probes) incorporation. This potential-sensitive cationic dye accumulates in the mitochdndrial matrix according to the Nernst equation (Reers et al., 1991). JC-1 green fluorescence, associated with JC-1 monomers was collected in the FL-1 channel. JC-1 orange fluorescence, associated with the formation of J-aggregates was collected in the FL-2 channel (585+/−21 nm) (Reers et al, 1991). Both fluorescences were recorded in logarithmic amplifier mode, using the PMT at a voltage adjusted to 907 and 622 respectively. Spectral overlap was avoided by adjusting compensation network as follows: FL1-18.5% FL2 and FL2-25.4% FL1. The JC-1 orange/green fluorescence ratio was calculated with the FCS Assistant software.
# Real-time monitoring of ΔΨm was performed on mitochondrial samples containing 1.5 μg proteins in 400 μl of swelling buffer. […] Then drugs were added to the sample, and ΔΨm variations were recorded for the following 16 minutes. Depolarization curves were drawn as previously indicated for swelling curves; the time scale was divided into discrete periods of 1 minute and the mean of JC-1 orange and JC-1 green fluorescence of the corresponding mitochondrial subsets was calculated by the CellQuest Pro software and exported into the Microsoft Excel software.
# [3] = test system: purified mouse liver mitochondria; assay: FCM analysis of PTP-dependant and PTP-independent MMP after pre-treatment with inhibitors; assay type: biochemical; conditions: for effect on alamethicin induced MMP (in words): 50 μM BA, 10 μM CsA or 10 μM Ruthenium red, then alamethicin 5 μg/ml
# Experimental: Mitochondrial Membrane Permeabilization (MMP) was induced by 1-30 μM Calcium (CaCl2, MERCK), and 5 μg/ml Alamethicin (SIGMA). Ruthenium Red (SIGMA) and the PTP inhibitor Cyclosporine A (CSA, BIOMOL) were added at 10 μM 4 minutes before the addition of the MMP-inducing agents. The uncoupler carbonyl cyanide m-chlorophenylhydrazone (mClCCP, SIGMA) was used at 20 μM to completely collapse A m.
# Fixed-time analyses were performed on mitochondrial samples containing 10 μg proteins in 100 μl of swelling buffer. Samples were submitted to MPP-inducing reagents for 30 min at 25° C. Samples were immediately analyzed by flow cytometry, and data from 20.000 mitochondria were recorded. The percentage of specific swelling determined on forward scatter was calculated as follows;
# Fixed-time detection of ΔΨm was performed on mitochondrial samples containing 10 μg proteins in 100 μl of swelling buffer. Samples were submitted to MPT-inducing drugs for 15 min at 25° C., and JC-1 was added at 800 nM for 15 min at 37° C. in the dark. Samples were immediately analyzed by flow cytometry, and data from 20.000 mitochondria (gated on FSC-SSC parameters) were recorded. This assay permitted to quantify the percentage of highly energized mitochondria (with both orange and green fluorescence) and depolarized mitochondria (with green fluorescence only) as depicted in part C2 of FIG. 1.
# Mitochondria were exposed 5 minutes to 50 μM BA, 10 μM Csa, or 10 μM Ruthenium red followed by 30 min treatment with Ca^2+ (30 μM) or alamethicin (5 μg/ml). Then, mitochondria were subjected to FCM analysis of ΔΨm (JC-1 orange fluorescence) and SSC (Mean+/−SD; n=3).
# Jurkat cells = assay: Apoptosis by FACS analysis (ΔΨm loss and cell membrane permeability), Jurkat cells; assay type: cell-based, human; conditions: 24 hours incubation with 5 to 20 μM peptide
# [4] = test system: mammary adenocarcinoma MDA-MD-231 cells; assay: Apoptosis by FACS analysis (ΔΨm loss and cell membrane permeability), adenocarcinoma cells; assay type: cell-based, human; conditions: Adenocarcinoma MDA-MD231 cells; 24 hours incubation with 5 to 20 μM peptide
# HeLa cells = assay: Apoptosis of HeLa cells by fluorescent microscopy or FACS; assay type: cell-based, human; conditions: 5 or 10 μM, 24 or 48 h
# Experimental: Characterization of apoptosis induced on cultured human cells by treatment with MMP inducing peptides. The example shown relates to peptide seq. ID no 3 […]. […] The peptide was then tested on cell: the HeLa cells in exponential growth phase were treated with peptide or mock treated, then analyzed by fluorescent microscopy or FACS to ascertain apoptosis.
# Caspase-3 activation was performed using a fluorescent inhibitor of caspase-3 (FLICA, FAM-DEVD-FMK) from the CaspaTag™ kit (Intergen). The loss of plasma membrane integrity occurring during apoptosis of HeLa cells was determined by 7-Amino Actinomycin D. (7-AAD) incorporation (SIGMA). […] 7-AAD was added to cells at 37° C. for 15 min. Cells were trypsinized, resuspended in PBS and immediately acquired on the FACSCalibur. FAM-DEVD-FMK related fluorescence was detected using the Fl-1 channel. 7-AAD fluorescence was collected in the Fl-3 channel (>650 nm).
# HeLa cells were stained by […] for 15 minutes and observe d using a DM IRB inverted fluorescence microscope (Leica).
# HeLa cells were incubated for 24 or 48 h with 5 or 10 μM of peptide Seq. ID no 3 or left untreated. A. Cells were then stained with JC-1 and Hoechst dyes. […] B. Fluorescence microscopy of the cells, after 24 hours incubation with or without 5 μM peptide and staining with JC-1 dye. […]
# [5] = 50 μM BA or 10 μM CsA 5 min, then 30 μM Ca2+ 30 min
compound,measurement,setting,value
"N#CC(C#N)=NNc1cccc(Cl)c1 [CCCP, carbonyl cyanide meta-chlorophenylhydrazone]",changes of mitochondrial size (FSC) and structure (SSC) (in words),[1],low but significant granularity (SSC) decrease without detectable size (FSC) changes
same,changes of JC-1 orange fluorescence (ΔΨm) (in words),[2],rapid decrease in JC-1 orange fluorescence
[Ca+2] [Calcium],changes of mitochondrial size (FSC) and structure (SSC) (in words),[1],dose-dependent SSC decrease and FSC increase
same,changes of JC-1 orange fluorescence (ΔΨm) (in words),[2],decrease in JC-1 orange fluorescence
N.N.N.N.N.N.N.N.N.N.N.N.N.N.[Cl-].[Cl-].[Cl-].[Cl-].[Cl-].[Cl-].[O-2].[O-2].[Ru+3].[Ru+3].[Ru+4] [Ruthenium red],inhibition of Ca2+ induced SSC decrease,"[3]; 10 μM Ruthenium red 5 min, then 30 μM Ca2+ 30 min",80%
same,inhibition of Ca2+ induced ΔΨm loss,"[3]; 10 μM Ruthenium red 5 min, then 30 μM Ca2+ 30 min, JC-1 orange fluorescence",80%
same,effect on alamethicin induced MMP (in words),[3],not affected
CC(=O)NC(C)(C)C(=O)N1CCC[C@H]1C(=O)NC(C)(C)C(=O)N[C@@H](C)C(=O)NC(C)(C)C(=O)N[C@@H](C)C(=O)N[C@@H](CCC(N)=O)C(=O)NC(C)(C)C(=O)N[C@H](C(=O)NC(C)(C)C(=O)NCC(=O)N[C@@H](CC(C)C)C(=O)NC(C)(C)C(=O)N1CCC[C@H]1C(=O)N[C@H](C(=O)NC(C)(C)C(=O)NC(C)(C)C(=O)N[C@@H](CCC(=O)O)C(=O)N[C@@H](CCC(N)=O)C(=O)N[C@H](CO)Cc1ccccc1)C(C)C)C(C)C [alamethicin] (Ac-[Aib]P[Aib]A[Aib]AQ[Aib]V[Aib]GL[Aib]PV[Aib][Aib]EQ[Phe(ol)]),changes of mitochondrial size (FSC) and structure (SSC) (in words),[1],simultaneous FSC increase and SSC decrease
same,changes of JC-1 orange fluorescence (ΔΨm) (in words),[2],decrease in JC-1 orange fluorescence
CO[C@H](C/C=C\C=C\CC/C=C/C[C@H](C)/C=C/C(=C\C(=O)O)CC(=O)O)/C(C)=C\C=C(/C)C(=O)O [bongkrekic acid],effect on Ca2+ induced SSC decrease (in words),[3]; [5],partly affect
same,effect on Ca2+ induced ΔΨm loss (in words),[3]; [5],strongly reduces
same,effect on alamethicin induced MMP (in words),[3],not affected
EHWSYWLRPG-GGGGS,induction of MMP / activity on isolated mitochondria (in words),[1],not active on mitochondria
same,% of apoptotic cells,Jurkat cells,8%
same,% of apoptotic cells,[4],7%
EHWSYWLRPGGGGGSLLFIHFRIGCRHSRIG [SEQ ID N^o 11],% of apoptotic cells,Jurkat cells,18%
same,% of apoptotic cells,[4],92%
GG*CRGDMFG*CG,induction of MMP / activity on isolated mitochondria (in words),[1],not found inducing MMP
RKKRRQRRRCGGLANKKGAWLDSTKATRYLVKTESWILRN [SEQ ID N^o 4],apoptosis of HeLa cells (in words),HeLa cells,mitochondrio-toxic activity
